Values of other authors, collected in patent publication US8846083B2, “Method for the diffusion of molecules which are insoluble in an aqueous medium and composition using said method” (priority 2004, dated 2014).

Assays:
[1] = administered via the digestive tract
[2] = administered via the digestive tract; remark: listed apart in the source

| time at which the maximum concentration of the active ingredient in the blood is reached [1] [min] | SMILES | duration of pharmacological effects [2] |
| --- | --- | --- |
| 75 | CC(C(=O)O)c1cccc(C(=O)c2ccccc2)c1 (stereo not shown) [ketoprofen] | 1.5 hour |
| 90 | CC(C)Cc1ccc(C(C)C(=O)O)cc1 (stereo not shown) [ibuprofen] | approximately 2 hour |
